From patent US10723716B2, “Alpha-helix mimetics as modulators of Abeta self-assembly” (New York University, priority 2016, dated 2020)
“Also recorded” adds a separate entry of the source. Where two headings read alike, the source gives them in different places.

Tests used:
Aβ40 [1] = molecular target: T1, Aβ40 (Homo sapiens, UniProt P05067); assay: ThT-based kinetic assay of Aβ40 aggregation; type: biochemical; conditions: equimolar ratio
T1 construct: Cleavage of APP results in several Aβ isoforms; The predominant species are Aβ42 and Aβ40; purchased Anaspec (Fremont, Calif., USA)
Procedure: Kinetic assays were conducted on a FlexStation 3 Multi-Mode Microplate reader from Molecular Devices (Sunnyvale, Calif., USA). Experiments were conducted in triplicate in a 96-well plate with a final volume of 200 μL per well. Every measurement was an average of 50 readings. The aggregation of an amyloidogenic peptide (Aβ40, Aβ42, or IAPP) was initiated by the addition of the peptide from a stock solution (in DMSO, 0.5-1 mM) to phosphate buffer. The final concentration of each peptide was different based on their aggregation. The stoichiometry of ThT dye for each peptide was 0.5:1 (ThT:peptide). Peptide aggregation was monitored by ThT fluorescence (λex=445 nm and λem=485 nm). The blank sample contained all the components of the peptide samples except the peptide. The sample data were processed by subtracting the fluorescence of the blank sample. The fluorescence intensity data was then normalized by setting the maximum value to 1.
Kinetic assays in the presence of the compounds of the invention were conducted under the same conditions. The small molecules were added from a stock solution (1 mM or 10 mM in DMSO) to keep the final concentration of DMSO less than 1.0% (v/v). […]
Kinetic profiles were processed using Origin (version 9.1). […] Each run was fit independently to extract the t50 (time required to reach 50% of the maximum fluorescence intensity). […]

Aβ42 [2] = molecular target: T2, Aβ42 (Homo sapiens, UniProt P05067); assay: Seed-catalyzed kinetic assay, Aβ42; type: biochemical; conditions: equimolar ratio, preformed fibers (seeds)
T2 construct: Cleavage of APP results in several Aβ isoforms; The predominant species are Aβ42 and Aβ40; purchased Anaspec (Fremont, Calif., USA)
Procedure: (§1) Seeds of Aβ40/Aβ42 were prepared by incubating 200 μM of Aβ40/Aβ42 in phosphate buffer at room temperature. The samples were aged for 48 h and the formation of fibers was confirmed by TEM and ThT before storage at −20° C. until use. For the aggregation of Aβ40, 10% (based on the monomeric Aβ40, v/v) seeds were added along with ThT in phosphate buffer to the 96-well plate. The aggregation was initiated by the addition of monomeric Aβ40 followed by gentle mixing. The process was similar in the case of Aβ42 except that the seed concentration was 5% (based on the monomeric Aβ42, v/v).
(§2) The seeds were generated by aging 200 μM Aβ peptides for 48 h in phosphate buffer with occasional vortexing. The concentration of seeds was calculated based on the monomeric concentration of Aβ.

Aβ40 [3] = molecular target: T1, Aβ40; assay: Seed-catalyzed kinetic assay, Aβ40; type: biochemical; conditions: 20 μM Aβ40, 10% seeds, equimolar ratio
Procedure: as §1, §2

Aβ40 [4] = molecular target: T1, Aβ40; assay: Transmission electron microscopy (TEM) of Aβ40; type: biochemical
Aβ42 [5] = molecular target: T2, Aβ42; assay: Circular dichroism (CD) spectroscopy of Aβ42; type: biochemical; conditions: 15 μM Aβ42, equimolar ratio, after 24 h
Procedure: A freshly prepared stock solution of Aβ42 (500 μM) was diluted to 15 μM in phosphate buffer for CD measurements. The spectra of Aβ42 in the absence and presence of the compounds of the invention were recorded at 0.5 nm intervals from 190 to 260 nm with an averaging time of 10 sec. and an average of three repeats on a Aviv Stopped Flow CD Spectropolarimeter (Model 202SF).

Aβ12-28 = molecular target: T3, Aβ12-28 (Homo sapiens, UniProt P05067); assay: Circular dichroism (CD) spectroscopy of Aβ12-28; type: biochemical; conditions: Aβ12-28, 20% TFE, equimolar ratio
T3 construct: Aβ12-28, a well-characterized subdomain of Aβ42; purchased Anaspec (Fremont, Calif., USA)

Aβ40 [6] = molecular target: T1, Aβ40; assay: Isothermal titration calorimetry (ITC); type: binding
Procedure: ITC experiments were performed in a NANO-ITC (TA instruments, New Castle, Del., USA). […] The heat associated with each injection was calculated by integrating each heat burst curve using NanoAnalyze software (New Castle, Del., USA). […] No parameter was constrained during the fitting. The data were extracted from the best fit after 10,000 iterations.

N2a cells = assay: Confocal fluorescence microscopy, cellular uptake; type: cell-based, mouse; conditions: 24 h incubation
Procedure: N2a cells were seeded at a density of 5×10^4 cells/well in 500 μL complete medium in 4-chambered 35 mm glass bottom Cellview cell culture dishes (Greiner Bio-One, Monroe, N.C., USA). […] For mitochondrial colocalization experiments, 50 nM MitoTracker Red FM or MitoTracker Green FM (Thermo Fisher Scientific, Waltham, Mass., USA) was added to the chambers and incubated for 15 min. Thereafter, the medium was removed, the cells were washed with PBS to remove any extracellular peptide, inhibitor or organelle marker, and 300 μL phenol red- and serum-free medium was added to each chambers of the cell culture dish. Imaging was done on an Olympus Fluoview FV1000MPE Confocal/2—Photon microscope, using a 63× Plan-Apo/1.3 NA oil immersion objective with DIC capability. Image processing was done using the Fiji image processing software according to known methodology (Schindelin, J.; Arganda-Carreras, I.; Frise, E.; Kaynig, V.; Longair, M.; Pietzsch, T.; Preibisch, S.; Rueden, C.; Saalfeld, S.; Schmid, B.; Tinevez, J. Y.; White, D. J.; Hartenstein, V.; Eliceiri, K.; Tomancak, P.; Cardona, A. Nat. Methods 2012, 9, 676-682).

[7] = tested on: Aβ42 mediated toxicity in mouse neuroblastoma (N2a) cells; assay: Aβ42 mediated toxicity in Neuro-2a cells (MTS cell viability); type: cell-based; conditions: for IC50: 5 μM Aβ42, N2a cells, read-out: IC50 (concentration required to inhibit 50% cell toxicity induced by 5 μM Aβ42); for cell viability, delayed addition: in % (unit assumed)
[8] = mouse/rat NG108-15, N2a, 5 μM Aβ42 + seeds (10% v/v), 5 μM compound, without compound 31%, read-out: cell viability, seed-induced Aβ42 cytotoxicity

T1 sequence (P05067 672-711 limits assumed): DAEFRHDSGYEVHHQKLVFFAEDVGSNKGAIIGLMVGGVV
T2 sequence (P05067 672-713 limits assumed): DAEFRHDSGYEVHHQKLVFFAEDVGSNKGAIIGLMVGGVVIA

effect on seed-catalyzed Aβ40 fibrillation (Aβ40 [3]) | fiber formation of Aβ40 seen by TEM (Aβ40 [4]; Aβ40 incubated with ADH-41, after 5 days) | aggregates of Aβ40 seen by TEM (Aβ40 [4]; equimolar ratio) | Aβ40 species seen by TEM (Aβ40 [4]; substoichiometric ratio 1:0.1 (Aβ40:ADH-41)) | β-sheet formation of Aβ42 (far UV-CD) (Aβ42 [5]) | conformation of Aβ12-28 (far UV-CD) (Aβ12-28) | Kd (Aβ40 [6]) [nM] | cell permeability (N2a cells) | Structure (SMILES) | effect on Aβ40 aggregation (ThT) (Aβ40 [1]) | effect on seed-catalyzed Aβ42 fibrillation (Aβ42 [2]) | IC50 [7] [nM] | cell viability, delayed addition ([7]; ADH-41 added after 24 h of exposure to 5 μM Aβ42) | cell viability, delayed addition ([7]; ADH-41 added after 48 h of exposure to 5 μM Aβ42) | IC50 ([7]; mouse/rat NG108-15, N2a) [nM] | viability at 5 µM ([7]; mouse/rat NG108-15, N2a, 24 h, read-out: cell viability) [%] | viability at 5 µM [7, 8] [%] | viability at 5 µM ([7]; mouse/rat NG108-15, N2a, read-out: cell viability, delayed addition) [%]
completely arrested | scant evidence of fiber formation | No aggregates were visible | short protofibrils | No formation of β-sheet structure | strong α-helical conformation | 700 ± 100 | good cell permeability | COC(=O)c1ccc(NC(=O)c2ccc(NC(=O)c3ccc([N+](=O)[O-])c(OCc4ccccc4)n3)c(OCCCN)n2)c(OCCCN)n1 [ADH-41] | decreased significantly; also recorded: completely arrested | completely arrested; also recorded: completely inhibits; also recorded: completely suppressed | 1400 ± 100 | 79±2 | 102±2 | 1450 | 99 | 63 | 93 ± 2
– | – | – | – | – | – | – | – | COC(=O)c1ccc(NC(=O)c2ccc(NC(=O)c3ccc(NC(=O)c4ccc([N+](=O)[O-])c(OCC(C)C)n4)c(OCc4ccccc4)n3)c(OCC(=O)O)n2)c(OCC(=O)O)n1 [ADH-31] | – | completely suppressed | – | – | – | 2500 ± 100 | – | 69 | –
